Data reported in the supplement of paper PMC10307832.

Assays:
Test in all cases: relative viability (nuclei count vs DMSO), 5 days (fraction); higher = more cells survive
[1] = compound: CC(C)C[C@H](NC(=O)[C@H](Cc1ccccc1)NC(=O)c1cnccn1)B(O)O [Bortezomib] + CC1(C)CCC(c2ccc(Cl)cc2)=C(CN2CCN(c3ccc(C(=O)NS(=O)(=O)c4ccc(N[C@H](CCN5CCOCC5)CSc5ccccc5)c(S(=O)(=O)C(F)(F)F)c4)cc3)CC2)C1 [Navitoclax] (partner 0.5 µM)
Method in brief: (§1)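 A single step with final 0.05% Triton X-100, 1% formaldehyde and 1 ug/ml Hoechst fixed the cells and stained nuclei 5 days after treatment. Lung cancer cell lines in 1536-well plates had been treated by pin tool the day after seeding with one drug alone or a fixed anchor-drug dose plus five library-drug doses (not always all listed) in √10 steps, and nuclei were counted on 4× images. Relative viability is the ratio of nuclei in treated wells to nuclei in vehicle wells, taken as the median of duplicate plates.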

[2] = compound: CC1=CC(=NN1)NC2=CC(=NC(=N2)/C=C/C3=CC=CC=C3)N4CCN(CC4)C + CS(=O)(=O)N1CCN(Cc2cc3nc(-c4cccc5[nH]ncc45)nc(N4CCOCC4)c3s2)CC1 [Pictilisib] (partner 1 µM)
Method in brief: as §1

[3] = compound: CC1=CC(=NN1)NC2=CC(=NC(=N2)/C=C/C3=CC=CC=C3)N4CCN(CC4)C + Nc1ncn([C@H]2C[C@H](O)[C@@H](CO)O2)c(=O)n1 [Decitabine] (partner 2 µM)
Method in brief: as §1

[4] = compound: COC1=CC(c2cc3ccccc3[nH]2)=N/C1=C\c1[nH]c(C)cc1C [Obatoclax] + CC1(C)CCC(c2ccc(Cl)cc2)=C(CN2CCN(c3ccc(C(=O)NS(=O)(=O)c4ccc(N[C@H](CCN5CCOCC5)CSc5ccccc5)c(S(=O)(=O)C(F)(F)F)c4)cc3)CC2)C1 [Navitoclax] (partner 0.5 µM)
Method in brief: as §1

| Cell Line | relative viability ([1]; first compound 0.0002 µM) | relative viability ([1]; first compound 0.002 µM) | relative viability ([1]; first compound 0.006325 µM) | relative viability ([1]; first compound 0.02 µM) | relative viability ([2]; first compound 0.08 µM) | relative viability ([2]; first compound 0.253 µM) | relative viability ([2]; first compound 0.8 µM) | relative viability ([2]; first compound 2.53 µM) | relative viability ([2]; first compound 8 µM) | relative viability ([3]; first compound 0.08 µM) | relative viability ([3]; first compound 0.253 µM) | relative viability ([3]; first compound 0.8 µM) | relative viability ([3]; first compound 2.53 µM) | relative viability ([3]; first compound 8 µM) | relative viability ([4]; first compound 0.01 µM) | relative viability ([4]; first compound 0.03162 µM) | relative viability ([4]; first compound 0.1 µM) | relative viability ([4]; first compound 0.3162 µM) | relative viability ([4]; first compound 1 µM) | relative viability ([1]; first compound 0.000632 µM) |
| --- | --- | --- | --- | --- | --- | --- | --- | --- | --- | --- | --- | --- | --- | --- | --- | --- | --- | --- | --- | --- |
| LU99A | 0.824 | 0.945 | 0.384 | 0.132 | 0.328 | 0.296 | 0.284 | 0.157 | 0.142 | 0.86 | 0.892 | 0.73 | 0.409 | 0.214 | 0.855 | 0.788 | 0.831 | 0.501 | 0.545 |  |
| LXF-289 | 0.936 | 0.955 | 0.0537 | 0.0449 | 0.802 | 0.783 | 0.74 | 0.442 | 0.277 | 0.371 | 0.383 | 0.324 | 0.288 | 0.248 | 0.912 | 0.883 | 0.926 | 0.905 | 0.96 | 0.942 |
| NCI-H23 |  | 0.834 | 0.212 | 0.126 | 0.462 | 0.48 | 0.382 | 0.296 | 0.134 | 0.302 | 0.326 | 0.29 | 0.177 | 0.141 | 0.907 | 0.733 | 0.847 | 0.537 | 0.813 | 0.495 |
| NCI-H322M | 1.34 | 1.18 | 1.24 | 1.09 | 0.456 | 0.52 | 0.463 | 0.219 | 0.242 | 0.82 | 0.719 | 0.675 | 0.587 | 0.298 | 1.16 | 1.26 | 1.29 | 1.14 | 1.39 |  |
| NCI-H441 | 0.4 | 0.31 | 0.17 | 0.143 | 0.463 | 0.554 | 0.265 | 0.172 | 0.0803 | 0.233 | 0.222 | 0.223 | 0.172 | 0.12 | 0.775 | 0.535 | 0.832 | 0.546 | 0.259 | 0.612 |
| NCI-H460 | 1.08 | 1.34 | 0.0699 | 0.0164 | 0.32 | 0.427 | 0.383 | 0.221 | 0.036 | 0.531 | 0.522 | 0.466 | 0.0534 | 0.0287 | 1.08 | 1.2 | 1.12 | 0.034 | 0.0115 | 1.15 |
| NCI-H520 | 1 | 0.347 | 0.145 | 0.157 | 0.335 | 0.306 | 0.251 | 0.156 | 0.127 | 0.382 | 0.542 | 0.501 | 0.191 | 0.14 | 1.1 | 1.16 | 1.07 | 0.795 | 0.288 | 0.959 |
| NCI-H596 | 0.921 | 0.925 | 0.123 | 0.131 | 0.406 | 0.417 | 0.388 | 0.253 | 0.271 | 1.17 | 1.01 | 0.889 | 0.659 | 0.364 | 0.898 | 0.74 | 0.775 | 0.519 | 0.583 | 0.817 |
| NCI-H647 | 0.997 | 0.619 | 0.0302 | 0.0207 | 0.438 | 0.48 | 0.377 | 0.0644 | 0.051 | 0.32 | 0.429 | 0.36 | 0.121 | 0.122 | 1.11 | 0.974 | 0.633 | 0.477 | 0.229 | 1.1 |
| NCI-H727 | 0.455 | 0.541 | 0.167 | 0.103 | 0.357 | 0.298 | 0.34 | 0.199 | 0.153 | 0.515 | 0.699 | 0.882 | 0.793 | 0.412 | 0.416 | 0.487 | 0.409 | 0.451 | 0.262 | 0.511 |
| NCI-H838 | 1.21 | 1.17 | 0.171 | 0.161 | 0.463 | 0.488 | 0.471 | 0.193 | 0.105 | 0.487 | 0.416 | 0.384 | 0.208 | 0.141 | 1.14 | 1.26 | 1.03 | 0.776 | 0.573 | 1.21 |
| NCI-H1355 | 0.85 | 0.737 | 0.604 | 0.139 | 0.412 | 0.36 | 0.395 | 0.263 | 0.118 | 0.305 | 0.346 | 0.351 | 0.356 | 0.201 | 0.883 | 0.976 | 0.953 | 0.885 | 0.91 | 0.95 |
| NCI-H1395 | 1.27 | 0.448 | 0.39 | 0.345 | 0.668 | 0.669 | 0.583 | 0.379 | 0.239 | 0.7 | 0.771 | 0.708 | 0.514 | 0.291 | 1.2 | 1.13 | 0.949 | 0.865 | 0.69 | 1.52 |
| NCI-H1437 | 1.08 | 1.1 | 0.118 | 0.123 | 0.57 | 0.446 | 0.416 | 0.271 | 0.0592 | 0.523 | 0.583 | 0.555 | 0.499 | 0.255 | 1.03 | 1.1 | 1.08 | 1.1 | 0.746 | 1.09 |
| NCI-H1650 | 1.17 | 0.191 | 0.119 | 0.106 | 0.519 | 0.526 | 0.549 | 0.113 | 0.0653 | 0.333 | 0.454 | 0.389 | 0.297 | 0.113 | 1.03 | 1.08 | 1.18 | 0.986 | 0.239 | 1.17 |
